Measurements: ChEMBL document CHEMBL1201862, “PubChem BioAssay data set” (2004)
Where “and” joins values, the source holds several entries; their conditions need not be identical. Identical values can stand only once.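 The compound was tested at five concentrations on cells cultured in 96-well plates, with a 48-hour exposure period. The concentration for 50% growth inhibition is given as GI50.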 Calls of active or inactive are those of the source. Cut-off read from the data, not from the text of the source: active = GI50 up to about 1.1 µM and inactive = higher.

Tests used:
Experiment in all cases: DTP human tumour cell line panel, 48 h
HCT-15 = test system: HCT-15
LOX IMVI = test system: LOX IMVI
RXF 393 = test system: RXF 393
NCI-H460 = test system: NCI-H460
MDA-MB-231 = test system: MDA-MB-231
SF-268 = test system: SF-268
NCI-H522 = test system: NCI-H522
RPMI-8226 = test system: RPMI-8226
HOP-92 = test system: HOP-92
OVCAR-5 = test system: OVCAR-5
PC-3 = test system: PC-3
DU-145 = test system: DU-145
UACC-257 = test system: UACC-257
MOLT-4 = test system: MOLT-4
SN12C = test system: SN12C
Hs-578T = test system: Hs-578T
TK-10 = test system: TK-10
CCRF-CEM = test system: CCRF-CEM
HCC 2998 = test system: HCC 2998

Structure (SMILES)	GI50 (HCT-15)	GI50 (LOX IMVI)	GI50 (RXF 393)	GI50 (NCI-H460)	GI50 (MDA-MB-231)	GI50 (SF-268)	GI50 (NCI-H522)	GI50 (RPMI-8226)	GI50 (HOP-92)	GI50 (OVCAR-5)	GI50 (PC-3)	GI50 (DU-145)	GI50 (UACC-257)	GI50 (MOLT-4)	GI50 (SN12C)	GI50 (Hs-578T)	GI50 (TK-10)	GI50 (CCRF-CEM)	GI50 (HCC 2998)
Cc1nc(O)c2c3c(sc2n1)CCCC3	> 100 µM	72.4 µM (inactive)	> 100 µM (inactive)	0.284 µM (active)	> 100 µM (inactive)	> 100 µM (inactive)	> 100 µM (inactive)	84.9 µM (inactive)	> 100 µM (inactive)	60.7 µM (inactive)	> 100 µM (inactive)	> 100 µM (inactive)	> 100 µM (inactive)	> 100 µM (inactive)	51.5 µM (inactive)	> 100 µM (inactive)	> 100 µM (inactive)	–	–
CCOC(=O)C1(C)CCc2sc(N)c(C#N)c21 (configuration not stated)	> 100 µM	–	> 100 µM (inactive)	> 100 µM (inactive)	> 100 µM (inactive)	–	–	> 100 µM (inactive)	> 100 µM (inactive)	> 100 µM (inactive)	> 100 µM (inactive)	–	> 100 µM (inactive)	> 100 µM (inactive)	> 100 µM (inactive)	> 100 µM (inactive)	> 100 µM (inactive)	> 100 µM (inactive)	> 100 µM (inactive)
COc1cccc(N2C(=O)/C(=C/c3ccc(N(CCC#N)CCC#N)cc3)N=C2c2cc([N+](=O)[O-])ccc2Cl)c1	50.4 µM	–	–	43.5 µM (inactive)	–	> 100 µM (inactive)	55.8 µM (inactive)	68.1 µM (inactive)	–	18.5 µM (inactive)	–	–	> 100 µM (inactive)	22.3 µM (inactive)	87.7 µM (inactive)	–	–	48.8 µM (inactive)	60.5 µM (inactive)
OC(CC(c1ccccc1)c1ccc(Cl)cc1)c1ccc(Cl)cc1 (configuration not stated)	33.4 µM	27.9 µM (inactive)	24.8 µM (inactive)	30.1 µM (inactive)	–	37.1 µM (inactive)	25.1 µM (inactive)	26.9 µM (inactive)	26.4 µM (inactive)	24.3 µM (inactive)	34.9 µM (inactive)	44.9 µM (inactive)	29.4 µM (inactive)	34.2 µM (inactive)	25.2 µM (inactive)	48.1 µM (inactive)	38 µM (inactive)	36.8 µM (inactive)	45.5 µM (inactive)
C=C1CC[C@]2(C)[C@H](CC[C@@]34C[C@@H](CC[C@H]32)[C@@H](C(=O)O)C4)C1(C)C	> 12.5 µM	> 12.5 µM (inactive)	> 12.5 µM (inactive)	5.19 µM (inactive)	> 12.5 µM (inactive)	–	–	–	5.5 µM (inactive)	> 12.5 µM (inactive)	10.3 µM (inactive)	–	> 12.5 µM (inactive)	6.17 µM (inactive)	> 12.5 µM (inactive)	6.68 µM (inactive)	> 12.5 µM (inactive)	7.05 µM (inactive)	–
CCN(CC)CCC(=O)c1ccc(Oc2ccc(C)cc2)cc1	18.7 µM	16.7 µM (inactive)	16.4 µM (inactive)	–	16.9 µM (inactive)	18.8 µM (inactive)	–	7.29 µM (inactive)	23.7 µM (inactive)	19.5 µM (inactive)	17.9 µM (inactive)	29.1 µM (inactive)	19.2 µM (inactive)	21.6 µM (inactive)	16.7 µM (inactive)	23.4 µM (inactive)	17.7 µM (inactive)	26.3 µM (inactive)	19.2 µM (inactive)
COc1ccc(C2=NN(C(=N)S)C(c3ccccc3)C2)cc1 (configuration not stated)	33.6 µM	38.3 µM (inactive)	24.4 µM (inactive)	30 µM (inactive)	–	43.6 µM (inactive)	25.5 µM (inactive)	23.6 µM (inactive)	30.5 µM (inactive)	58.2 µM (inactive)	34 µM (inactive)	53.6 µM (inactive)	29.2 µM (inactive)	28 µM (inactive)	39.3 µM (inactive)	75.7 µM (inactive)	37.8 µM (inactive)	33.2 µM (inactive)	44.8 µM (inactive)
COc1ccc(-c2c(C#N)c(N)n(C3OCC(OC(C)=O)C(OC(C)=O)C3OC(C)=O)c(=S)c2C#N)cc1 (configuration not stated)	73.1 µM and 62.5 µM	30 µM (inactive) and 34 µM (inactive)	19.1 µM (inactive) and 33.6 µM (inactive)	44.1 µM (inactive) and 36.4 µM (inactive)	41.7 µM (inactive) and 33 µM (inactive)	31.4 µM (inactive)	38.8 µM (inactive) and 53.3 µM (inactive)	25.9 µM (inactive) and 26.4 µM (inactive)	16.4 µM (inactive) and 11.8 µM (inactive)	45.7 µM (inactive) and 43.8 µM (inactive)	32.9 µM (inactive) and 34.4 µM (inactive)	64.4 µM (inactive) and 60.1 µM (inactive)	> 100 µM (inactive)	17.6 µM (inactive) and 14.3 µM (inactive)	34.6 µM (inactive) and 34.5 µM (inactive)	–	–	16.4 µM (inactive) and 31 µM (inactive)	37.8 µM (inactive) and 26.6 µM (inactive)
CN(/N=C/c1ccccc1O)c1ccc2ccccc2n1	12.5 µM	30.8 µM (inactive)	30.8 µM (inactive)	22.9 µM (inactive)	29.8 µM (inactive)	22.5 µM (inactive)	24.9 µM (inactive)	35.6 µM (inactive)	35.3 µM (inactive)	41.2 µM (inactive)	17.5 µM (inactive)	20.1 µM (inactive)	52.8 µM (inactive)	24 µM (inactive)	32.4 µM (inactive)	26.7 µM (inactive)	22.2 µM (inactive)	12.9 µM (inactive)	–
CCCCOC(=O)c1cc(C(=CCC[C@H]2CC[C@@]3(C)[C@@H](CC[C@@H]4[C@@H]3CC[C@]3(C)[C@@H](C(C)CCCC(C)C)CC[C@@H]43)C2)c2cc(Cl)c(O)c(C(=O)OCCCC)c2)cc(Cl)c1O (some centres not stated)	> 50 µM	> 50 µM (inactive)	–	> 50 µM (inactive)	> 50 µM (inactive)	> 50 µM (inactive)	–	> 50 µM (inactive)	> 50 µM (inactive)	–	> 50 µM (inactive)	> 50 µM (inactive)	–	> 5 µM (inactive)	> 50 µM (inactive)	> 50 µM (inactive)	–	> 50 µM (inactive)	> 50 µM (inactive)
CSc1scc2c1/C(=N/NC(N)=O)CCC2	> 100 µM	> 100 µM (inactive)	–	94.4 µM (inactive)	> 100 µM (inactive)	38.5 µM (inactive)	–	88.1 µM (inactive)	2.34 µM (inactive)	> 100 µM (inactive)	93.5 µM (inactive)	45.2 µM (inactive)	> 100 µM (inactive)	58.1 µM (inactive)	> 100 µM (inactive)	82.6 µM (inactive)	> 100 µM (inactive)	41.1 µM (inactive)	> 100 µM (inactive)
COC(=O)C1C=CN(N(C)C)C2=C1C(=O)c1c(O)cccc1C2=O (configuration not stated)	1.51 µM	–	2.79 µM (inactive)	1.04 µM (active)	1.89 µM (inactive)	3.83 µM (inactive)	2.48 µM (inactive)	0.887 µM (active)	–	2.42 µM (inactive)	2.96 µM (inactive)	1.58 µM (inactive)	1.41 µM (inactive)	2.56 µM (inactive)	1.73 µM (inactive)	2.69 µM (inactive)	4.27 µM (inactive)	2.22 µM (inactive)	1.93 µM (inactive)
CCOC(=O)CC(=O)N(c1ccc(OC)cc1)C(C(=O)OC)c1ccccc1 (configuration not stated)	> 100 µM	> 100 µM (inactive)	–	> 100 µM (inactive)	–	> 100 µM (inactive)	> 100 µM (inactive)	> 100 µM (inactive)	–	> 100 µM (inactive)	> 100 µM (inactive)	> 100 µM (inactive)	> 100 µM (inactive)	–	> 100 µM (inactive)	> 100 µM (inactive)	> 100 µM (inactive)	> 100 µM (inactive)	–
CCOC(=O)c1cnc2oc3ccc(O)cc3c2c1-c1ccccc1	26.7 µM	21.6 µM (inactive)	41.1 µM (inactive)	13.2 µM (inactive)	16.8 µM (inactive)	–	–	8.73 µM (inactive)	16.3 µM (inactive)	> 100 µM (inactive)	18 µM (inactive)	> 100 µM (inactive)	> 100 µM (inactive)	7.4 µM (inactive)	37.9 µM (inactive)	20.6 µM (inactive)	> 100 µM (inactive)	16.4 µM (inactive)	> 100 µM (inactive)
O=C1CN(c2cccc(Cl)c2)C(=O)CN1CCN1CC(=O)N(c2cccc(Cl)c2)CC1=O	> 100 µM	–	> 100 µM (inactive)	> 100 µM (inactive)	–	> 100 µM (inactive)	> 100 µM (inactive)	> 100 µM (inactive)	> 100 µM (inactive)	> 100 µM (inactive)	> 100 µM (inactive)	> 100 µM (inactive)	> 100 µM (inactive)	> 100 µM (inactive)	> 100 µM (inactive)	> 100 µM (inactive)	> 100 µM (inactive)	> 100 µM (inactive)	> 100 µM (inactive)
NCCC(=O)N[C@@H](Cc1cc(O)c(O)c(SCC(NC(=O)CC[C@H](N)C(=O)O)C(=O)NCC(=O)O)c1)C(=O)O (some centres not stated)	> 50 µM	–	> 50 µM (inactive)	> 50 µM (inactive)	> 50 µM (inactive)	> 50 µM (inactive)	> 50 µM (inactive)	> 50 µM (inactive)	> 50 µM (inactive)	> 50 µM (inactive)	> 50 µM (inactive)	> 50 µM (inactive)	> 50 µM (inactive)	> 50 µM (inactive)	> 50 µM (inactive)	–	> 50 µM (inactive)	–	> 50 µM (inactive)
